# Tests used:
# [1] = in vivo; cited from earlier work
# clinical = conditions: in vivo; for AUC(0-inf): AUCinf
# Experimental: A study was performed in order to compare the pharmacokinetic parameters of R- and S-ketorolac following intravenous, passive transdermal and electrotransport administration of a racemic mixture of ketorolac.
# Twelve healthy male volunteers were enrolled in a pilot feasibility study. Subjects were required to undergo a pre-study screening to evaluate whether they met study inclusion or exclusion criteria. Screening procedures included a medical history, physical exam, electrocardiogram and clinical laboratory tests.
# The study was an open-label, randomized, three-treatment crossover pharmacokinetics study designed to compare plasma ketorolac concentrations during 24-hour treatment regimens with an electrotransport system ("ETS"), a (passive) therapeutic transdermal system ("TTS") and intravenous ketorolac bolus injection.
# The ketorolac treatments are listed below; there was a washout period of at least 6 days between treatments.
# During the ETS (ketorolac) treatment, each subject was expected to receive an estimated 26 mg of ketorolac free acid over a 24-hour period, delivered by electrotransport from a total cathode area of 18 cm^2, based on an estimated in vitro flux rate of 60 μg/cm^2 /h.
# Three electrotransport systems, with a total cathode gel area of 18 cm^2, were applied to the upper arms of each subject in this study. Each of the three controllers was set to provide a total direct current of 0.6 mA, which maintained a current density of 100 μA/cm^2.
# During TTS treatment, each subject was expected to receive an estimated 50 mg of ketorolac free acid over a 24-hour period, delivered passively through the skin from a total application area of 75 cm^2 based on an estimated in vitro flux rate of 25 to 30 μg/cm^2 /h.
# The TTS systems were produced with a backing and protective liner in a 25 cm^2 size. The system formulation contained drug (free acid), ethylene vinyl acetate (40% vinyl acetate), glycerol monolaurate, and Ceraphyl® 31. Three TTS monoliths, with a total surface area of 75 cm^2, were used to deliver the drug. The combined systems contained 135 mg of ketorolac free acid. Because the systems were not self-adhesive, an adhesive overlay was required to ensure good skin contact.
# During the intravenous bolus treatment, each subject received a total of 24 mg of ketorolac free acid (36 mg of ketorolac tromethamine salt). Drug was delivered by IV bolus injections of 12 mg of ketorolac free acid (18 mg of ketorolac tromethamine salt) which were administered at Hour 0 and at Hour 12. A 1 mL aliquot of each ketorolac solution was retained directly after syringe preparation and prior to injection.
# Initially either the ETS or the TTS was applied, or the first intravenous injection was administered. ETS and TTS treatments continued for 24 hours, and the bolus treatment was completed after the second dose at 12 hours. Blood and urine samples were collected at intervals during a 48-hour period after initiation of each ketorolac treatment regimen.
# Blood samples, 7 mL each, were collected from each subject at intervals during the 48 hour period after initiation of treatment.
# Plasma levels of ketorolac were determined by HPLC assay, performed at the Clinical Pharmacology Division of the School of Medicine at Indiana University, Wishard Memorial Hospital, Indianapolis, Ind.
# Actual blood sample collection times were used for all calculations and data were summarized by nominal sampling times. Plasma ketorolac concentrations below the assay quantification limit of 20 ng/mL were assigned a value of zero.
# [2] = in vivo
# Experimental: The transport of the R- and S-isomers of ketorolac was evaluated using passive transdermal delivery and electrotransport, in a study conducted in healthy volunteers. Intravenous bolus administration of 24 mg racemic ketorolac served as the reference treatment. The relative amounts of R- and S-ketorolac absorbed following passive transdermal and electrotransport administration were determined relative to intravenous R- and S-ketorolac clearance (assuming that the racemic ketorolac contained equal amounts of the R- and S-isomers).
# [3] = transdermal; cited from earlier work
Compound,"Plasma Ketorolac Concentrations (clinical; human, 60 min) [ng/mL]","Plasma Ketorolac Concentrations (clinical; human, 90 min) [ng/mL]","Plasma Ketorolac Concentrations (clinical; human, 360 min) [ng/mL]","Plasma Ketorolac Concentrations (clinical; human, 480 min) [ng/mL]","Plasma Ketorolac Concentrations (clinical; human, 720 min) [ng/mL]","Plasma Ketorolac Concentrations (clinical; human, 960 min) [ng/mL]","Plasma Ketorolac Concentrations (clinical; human, 1680 min) [ng/mL]","AUC inf (clinical; human, iv) [ng·h/mL]","Apparent elimination rate constant (k) (clinical; human, iv) [h⁻¹]","C max (clinical; human, iv) [ng/mL]","K2 (elimination rate constant) (clinical; human, iv) [h⁻¹]","Volume (clinical; human, iv) [L]","Plasma Ketorolac Concentrations (clinical; human, iv, 720 min) [ng/mL]","Plasma Ketorolac Concentrations (clinical; human, iv, 14 h) [ng/mL]","AUC(0-inf) (clinical; human, iv) [ng·h/mL]","Amount Delivered (AD), ETS/IV (amount absorbed) (clinical; iv) [mg]","Amount Delivered (AD), TTS/IV (amount absorbed) (clinical; iv) [mg]",K1 (distribution rate constant) (clinical; iv) [h⁻¹],"clearance, R- vs S-ketorolac (clinical; iv)",other results
O=C(c1ccccc1)c1ccc2n1CC[C@@H]2C(=O)O [S-ketorolac],0.0,0.0,0.0,0.0,0.0,0.0,0.0,1566,0.41,404,0.35,10.33,0.0,113.0,1560,11.65,4.76,2.10,differed,"clearance vs other enantiomer [1]: more rapid clearance than the other enantiomer; Plasma Ketorolac Concentrations (clinical; human, 1200 min): 0.0 ng/mL; Plasma Ketorolac Concentrations (clinical; human, 1440 min): 0.0 ng/mL; Plasma Ketorolac Concentrations (clinical; human, 1470 min): 0.0 ng/mL; Plasma Ketorolac Concentrations (clinical; human, 1500 min): 0.0 ng/mL; Plasma Ketorolac Concentrations (clinical; human, 1560 min): 0.0 ng/mL; T max (clinical; human, iv): 30 min; Plasma Ketorolac Concentrations (clinical; human, iv, 240 min): 0.0 ng/mL; Plasma Ketorolac Concentrations (clinical; human, iv, 360 min): 0.0 ng/mL; Plasma Ketorolac Concentrations (clinical; human, iv, 480 min): 0.0 ng/mL; Plasma Ketorolac Concentrations (clinical; human, iv, 1080 min): 0.0 ng/mL; Plasma Ketorolac Concentrations (clinical; human, iv, 1200 min): 0.0 ng/mL; Plasma Ketorolac Concentrations (clinical; human, iv, 1440 min): 0.0 ng/mL; Plasma Ketorolac Concentrations (clinical; human, topical or ocular, 16 h): 58.0 ng/mL; Plasma Ketorolac Concentrations (clinical; human, topical or ocular, 28 h): 21.0 ng/mL; S/R ratio of amount absorbed, mean [2]: 1.15; S/R ratio of amount absorbed, median [2]: 1.18; S/R ratio of amount absorbed, range [2]: 0.8-1.43"
phenylpropanolamine,–,–,–,–,–,–,–,–,–,–,–,–,–,–,–,–,–,–,–,flux rates of individual purified isomers [3]: nearly identical flux rates
O=C(c1ccccc1)c1ccc2n1CC[C@H]2C(=O)O [R-ketorolac],0.0,0.0,0.0,0.0,0.0,0.0,0.0,6171,0.125,872,0.15,5.4,0.0,386.0,6250,7.9,4.96,1.54,differed,"Plasma Ketorolac Concentrations (clinical; human, 240 min): 0.0 ng/mL; Plasma Ketorolac Concentrations (clinical; human, 1920 min): 0.0 ng/mL; Plasma Ketorolac Concentrations (clinical; human, 2880 min): 0.0 ng/mL; AUC(0-inf) (clinical; human): 5640 ng·h/mL; Apparent half-life (t1/2) (clinical; human, iv): 4.3 h; k el (clinical; human, iv, Apparent elimination rate constant (k)): 3.89e-05 s⁻¹; half-life (clinical; human, iv, Apparent half-life (t1/2)): 300 min; Plasma Ketorolac Concentrations (clinical; human, topical or ocular, 1.5 h): 37.0 ng/mL; Plasma Ketorolac Concentrations (clinical; human, topical or ocular, 12 h): 67.0 ng/mL; Plasma Ketorolac Concentrations (clinical; human, topical or ocular, 20 h): 29.0 ng/mL; Plasma Ketorolac Concentrations (clinical; human, topical or ocular, 24.5 h): 211.0 ng/mL; plasma concentrations during TTS compared with ETS (clinical): lower than those observed during ETS administration; T max (clinical; iv): 30 min"

# — patent publication US6136327A, “Stereospecific delivery of a drug using electrotransport” (priority 1997, dated 2000)
